From publication PMC5734940 (Toxicology and applied pharmacology, 2017)
Where two headings read alike, the source gives them in different places.

Key:
[1] = test system: Human iPSC-derived cardiomyocytes (iCell cardiomyocytes); assay: Calcium flux assay; conditions: for Effect on beat frequency (in words): at 10 and/or 30 μM, PAHs; for Ca2+-flux phenotype in words: text to Figure 3; for Typical phenotypic response of calcium-flux signal trace: 30 μM, after 30 minutes of exposure, Figure 3
[2] = test system: Human iPSC-derived cardiomyocytes (iCell cardiomyocytes); format: cell-based
[3] = test system: Human iPSC-derived cardiomyocytes (iCell cardiomyocytes); conditions: 30 min after treatment, JC-10
[4] = test system: Human iPSC-derived cardiomyocytes (iCell cardiomyocytes); conditions: for Cytotoxicity (in words): 24 hrs, concentrations up to 30 μM
[5] = at both short-term (30 min) and longer-term exposures (24 hrs)
[6] = primarily at 24 hrs of exposure, Figure 5

CN1C(=O)CN=C(c2ccccc2)c2cc(Cl)ccc21 [diazepam, Diazepam, reference compound]
Effect on peak frequency (in words) [1]: altered peak frequency

c1ccc2c(c1)Cc1ccccc1-2 [fluorene, Fluorene]
Cardiotoxic selectivity for peak frequency (selective = ratio ≥3) [2, 5]: selective
Effect on beat frequency (in words) [1]: positive but generally weak effect

COc1ccc2cc3[n+](cc2c1OC)CCc1cc2c(cc1-3)OCO2 [berberine chloride, Berberine chloride, reference compound]
Cardiotoxic selectivity for peak frequency (selective = ratio ≥3) [2, 5]: selective
Ca2+-flux phenotype in words [1]: decrease in the peak frequency concomitant with an increase in the average peak width

Brc1ccc(Oc2cc(Br)c(Br)cc2Br)c(Br)c1 [2,2′,4,4′,5-pentabromodiphenyl ether, 2,2′,4,4′,5-Pentabromodiphenyl ether]
Cardiotoxic selectivity for peak frequency (selective = ratio ≥3) [2, 5]: selective

c1ccc2c(c1)ccc1ccccc12 [phenanthrene, Phenanthrene]
Effect on beat frequency (in words) [1]: positive but generally weak effect

CCCCC(CC)COP(=O)(Oc1ccccc1)Oc1ccccc1 (centres unmarked) [2-ethylhexyl diphenyl phosphate, 2- Ethylhexyl diphenyl phosphate (EHDP)]
Effect on mitochondria / mitochondria potential (in words) [3]: selectively decreased mitochondria potential

C[n+]1ccc(-c2ccccc2)cc1.[I-] [1-methyl-4-phenylpyridinium iodide, 1-Methyl-4-phenylpyridinium iodide (MPP+), reference compound]
Cardiotoxic selectivity for peak frequency (selective = ratio ≥3) [2, 5]: selective
Ca2+-flux phenotype in words [1]: decrease in the peak frequency concomitant with an increase in the average peak width

c1ccc2c(c1)cc1ccc3cccc4ccc2c1c34 [benzo(a)pyrene, Benzo(a)pyrene]
Effect on beat frequency (in words) [1]: positive but generally weak effect

CCCCCC [n-hexane, n-Hexane]
Response in the Calcein AM readout [4]: positive response
POD, Calcein AM readout ([4]; human): below 30 μM
Effect on peak frequency (in words) [1]: altered peak frequency

c1ccc2c(c1)c1cccc3ccc4cccc2c4c31 [benzo(e)pyrene, Benzo(e)pyrene]
Response in the Calcein AM readout [4, 6]: positive response
Typical phenotypic response of calcium-flux signal trace [1]: mild increases in peak frequency
Effect on beat frequency (in words) [1]: positive but generally weak effect

CC1(C)[C@H](C(=O)O[C@H](C#N)c2cccc(Oc3ccccc3)c2)[C@@H]1C=C(Br)Br [deltamethrin, Deltamethrin]
Cardiotoxic selectivity for peak frequency (selective = ratio ≥3) [2, 5]: selective

c1ccc2ccccc2c1 [naphthalene, Naphthalene]
Effect on beat frequency (in words) [1]: positive but generally weak effect

c1cc2c3c(c1)ccc1cccc(c13)C2 [4-H-cyclopenta(d,e,f)phenanthrene, 4-H-Cyclopenta(d,e,f)phenanthrene]
Effect on beat frequency (in words) [1]: positive but generally weak effect

CC1(C)C(C=C(Cl)Cl)C1C(=O)OCc1cccc(Oc2ccccc2)c1 (centres unmarked) [permethrin, Permethrin]
Cardiotoxic selectivity for peak frequency (selective = ratio ≥3) [2, 5]: selective

c1ccc2cc3c(ccc4ccccc43)cc2c1 [benz(a)anthracene, Benz(a)anthracene]
Response in the Calcein AM readout [4, 6]: positive response
Effect on beat frequency (in words) [1]: positive but generally weak effect

O=C(O)CCCC[C@@H]1SC[C@@H]2NC(=O)N[C@@H]21 [biotin, Biotin, reference compound]
Typical phenotypic response of calcium-flux signal trace [1]: unaffected regular Ca2+-flux
Ca2+-flux phenotype in words [1]: regular beating pattern

CCCCC(CC)COC(=O)c1ccccc1C(=O)OCC(CC)CCCC (centres unmarked) [di(2-ethylhexyl) phthalate, Di(2-ethylhexyl) phthalate]
Cardiotoxic selectivity for peak frequency (selective = ratio ≥3) [2, 5]: selective

CC(C)(C)C(O)(CCc1ccc(Cl)cc1)Cn1cncn1 (centres unmarked) [tebuconazole, Tebuconazole]
Effect on mitochondria / mitochondria potential (in words) [3]: selectively decreased mitochondria potential

CC(C)[C@@H]1NC(=O)[C@H](C)OC(=O)[C@@H](C(C)C)NC(=O)[C@@H](C(C)C)OC(=O)[C@H](C(C)C)NC(=O)[C@H](C)OC(=O)[C@@H](C(C)C)NC(=O)[C@@H](C(C)C)OC(=O)[C@H](C(C)C)NC(=O)[C@H](C)OC(=O)[C@@H](C(C)C)NC(=O)[C@@H](C(C)C)OC1=O [valinomycin, Valinomycin, reference compound]
Cytotoxicity (in words) [4]: highly cytotoxic
Effect on mitochondria / mitochondria potential (in words) [3]: strong effect

O=P(Oc1ccccc1)(Oc1ccccc1)Oc1ccccc1 [triphenyl phosphate, Triphenyl phosphate]
Effect on mitochondria / mitochondria potential (in words) [3]: selectively decreased mitochondria potential

C1=Cc2cccc3cccc1c23 [acenaphthylene, Acenaphthylene]
Cardiotoxic selectivity for peak frequency (selective = ratio ≥3) [2, 5]: selective
Effect on beat frequency (in words) [1]: positive but generally weak effect

c1ccc2cc3c(cc2c1)-c1cccc2cccc-3c12 [benzo(k)fluoranthene, Benzo(k)fluoranthene]
Response in the Calcein AM readout [4, 6]: positive response
Typical phenotypic response of calcium-flux signal trace [1]: mild increases in peak frequency
Effect on beat frequency (in words) [1]: positive but generally weak effect

c1ccc2cc3ccccc3cc2c1 [anthracene, Anthracene]
Response in the Calcein AM readout [4, 6]: positive response

C=C(C)[C@H]1Cc2c(ccc3c2O[C@@H]2COc4cc(OC)c(OC)cc4[C@@H]2C3=O)O1 [rotenone, Rotenone]
Cytotoxicity (in words) [4]: highly cytotoxic
POD values in most other endpoints queried, including cytotoxicity ([1]; endpoints other than JC-10 at 30 min): below 30 μM
Ca2+-flux phenotype in words [1]: Negative inotropic effects

CCOP(=S)(OCC)Oc1ccc([N+](=O)[O-])cc1 [parathion, Parathion]
Effect on mitochondria / mitochondria potential (in words) [3]: selectively decreased mitochondria potential

c1cc2ccc3cccc4ccc(c1)c2c34 [pyrene, Pyrene]
Cardiotoxic selectivity for peak frequency (selective = ratio ≥3) [2, 5]: selective
Effect on beat frequency (in words) [1]: positive but generally weak effect

Brc1ccc(Oc2ccc(Br)cc2Br)c(Br)c1 [2,2′,4,4′-tetrabromodiphenyl ether, 2,2′4,4′-Tetrabromodiphenyl ether]
Cardiotoxic selectivity for peak frequency (selective = ratio ≥3) [2, 5]: selective

N#CCCNCCC#N [3,3′-iminodipropionitrile, 3,3′-Iminodipropionitrile]
Response in the Calcein AM readout [4, 6]: positive response

Phenol, isopropylated, phosphate (3:1)
Cardiotoxic selectivity for peak frequency (selective = ratio ≥3) [2]: selective
Shape of concentration response for cardiomyocyte peak frequency [1]: non-monotonic concentration responses

CCOP(=S)(OCC)Oc1nc(Cl)c(Cl)cc1Cl [chlorpyrifos, Chlorpyrifos]
Effect on mitochondria / mitochondria potential (in words) [3]: selectively decreased mitochondria potential

Cl[C@H]1[C@H](Cl)[C@@H](Cl)[C@@H](Cl)[C@H](Cl)[C@H]1Cl [lindane, Lindane]
Effect on mitochondria / mitochondria potential (in words) [3]: selectively decreased mitochondria potential

c1ccc2c(c1)-c1cccc3c1c-2cc1ccccc13 [benzo(b)fluoranthene, Benzo(b)fluoranthene]
Response in the Calcein AM readout [4, 6]: positive response
Effect on beat frequency (in words) [1]: positive but generally weak effect
